Experimental data published in patent US11491132B2, “Methods for treating thrombocytopenia” (Enzychem Lifesciences Corporation, priority 2014, dated 2022).

Legend:
C3 = C3 expression in IL-4/TNF-α treated HMC-1 cells, RT-PCR; type: cell-based, human; conditions: HMC-1 cells treated with IL-4 and TNF-α; PLAG 0.1 and 1 μg/mL pre-treatment, or S6I
Protocol: A blood cell line, HMC-1 (human mast cell, American Type Culture Collection, ATCC, Rockville, Md.) is incubated and maintained at 37° C. under 5% CO2 humid conditions. The medium is IMDM (Life Technologies, Karlsruhe, Germany) containing 10% Fetal Calf Serum (FCS, HyClone, Logan, Utah), 2 mM […], 100 μg/ml penicillin, 100 μg/ml streptomycin (Life Technologies). The cultured HMC-1 cells (1×10^6 cell/ml) are pre-treated with 0.1 and 1 μg/mL concentration of PLAG, followed by treating with IL-4 (5 ng) and/or TNF-α (10 ng) to induce cellular activities.
The expressed C3 and its mRNA level change are observed by using RT-PCR (Reverse Transcriptase Polymerase Chain Reaction). The RT-PCR is carried out as follows: the total RNA is separated by the standard protocol and cDNA is synthesized using AccuScript High Fidelity 1st Strand cDNA Synthesis Kit (Stratagene) by the manufacturer's instructions. Two-step RT-PCR reaction is conducted using Oligo-dT primer and reverse transcriptase, pair of primer and Taq polymerase (Takara, Shiga, Japan). […] The product of PCR is separated using 1.5% agarose gel, dyed with ethidium bromide (EtBr), and visualized with Gel Doc 2000 UV trans-illuminator (Bio-Rad Laboratories, Hercules, Calif., USA), and the experimental data is analyzed using Quantity One software (Bio-Rad Laboratories).

[1] = system: white blood cells and neutrophils; experiment: PLAG in combination with G-CSF in cyclophosphamide-treated mouse model; type: in vivo, mice; conditions: addition of PLAG to G-CSF; levels vs untreated mice
Description: Mice receive cyclophosphamide (100 mpk, i.p.) for a period of ten days, with or without G-CSF (0.25 mpk, i.p.) or G-CSF (0.25 mpk, i.p.) plus PLAG (25 mpk, p.o.): […]

STAT6 = target: T1, STAT6 (Homo sapiens, UniProt P42226); experiment: Dephosphorylation of STAT6 in PLAG treated cells, western blot; type: cell-based; parameters: endogenous in cells; host or cells: U937, A549, Jurkat; conditions: U937, Jurkat and A549 cells; PLAG 0.01 to 10 μg/ml; 15 min after 10 ng/ml IL-4
T1 sequence (P42226 1-847): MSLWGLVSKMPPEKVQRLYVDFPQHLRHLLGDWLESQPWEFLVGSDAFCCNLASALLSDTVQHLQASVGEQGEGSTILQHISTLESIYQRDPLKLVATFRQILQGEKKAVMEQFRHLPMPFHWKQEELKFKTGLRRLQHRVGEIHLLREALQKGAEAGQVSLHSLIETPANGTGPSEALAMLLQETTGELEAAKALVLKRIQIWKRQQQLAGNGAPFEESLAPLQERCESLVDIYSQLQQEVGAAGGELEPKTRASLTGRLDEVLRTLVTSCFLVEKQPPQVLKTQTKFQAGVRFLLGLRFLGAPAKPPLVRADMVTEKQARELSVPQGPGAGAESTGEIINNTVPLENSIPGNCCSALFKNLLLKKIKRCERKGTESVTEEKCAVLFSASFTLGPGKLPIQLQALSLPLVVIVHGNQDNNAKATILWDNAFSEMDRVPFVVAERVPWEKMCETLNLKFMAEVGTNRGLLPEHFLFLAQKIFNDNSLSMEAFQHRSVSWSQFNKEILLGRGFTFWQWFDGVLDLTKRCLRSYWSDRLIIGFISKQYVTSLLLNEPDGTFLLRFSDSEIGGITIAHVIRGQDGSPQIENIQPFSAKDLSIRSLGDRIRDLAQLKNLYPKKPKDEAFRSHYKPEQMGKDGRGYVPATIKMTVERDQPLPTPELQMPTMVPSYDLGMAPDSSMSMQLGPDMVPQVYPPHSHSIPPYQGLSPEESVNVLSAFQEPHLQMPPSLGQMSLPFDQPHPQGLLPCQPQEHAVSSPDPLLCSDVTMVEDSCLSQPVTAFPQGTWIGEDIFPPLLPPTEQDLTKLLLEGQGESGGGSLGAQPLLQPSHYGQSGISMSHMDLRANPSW
Protocol: Dephosphorylation of STAT6 is examined using anti-phosphorylated STAT6 in U937, A549, and Jurkat cell lysates treated with PLAG concentration from 0.01 to 10 μg/ml. Phosphorylation of STAT6 is induced by treatment with 10 ng/ml of IL-4. Dephosphorylation of STAT1 is examined in the U937 cell lysate treated with PLAG (0.01 to 10 μg/ml). Phosphorylation of STAT1 is induced by 10 ng of IFN-γ treatment. Dephosphorylation of STAT1 and STAT6 is examined at 15 min after stimulation with IFN-γ and IL-4 respectively, in the PLAG pretreated cells. […] The transcriptional activity of STAT6 is decreased by the dephosphorylation of STAT6. […] No effect of PLAG on STAT1 phosphorylation is observed.

CCCCC/C=C\C/C=C\CCCCCCCC(=O)OC(COC(C)=O)COC(=O)CCCCCCCCCCCCCCC (racemic) [PLAG, 1-palmitoyl-2-linoleoyl-3-acetylglycerol]
expression of C3 (C3): suppressed by PLAG on a concentration dependent basis | protection from cyclophosphamide-induced neutropenia [1]: substantially complete protection | IL-4 treatment induced STAT6 phosphorylation (STAT6): inhibited with increasing PLAG concentrations
